Results taken from paper PMC6117091, “The C. difficile clnRAB operon initiates adaptations to the host environment in response to LL-37” (PLoS Pathogens, 2018).

Test system: gene expression in C. difficile 630Δerm
Experiment: RNA-seq, genes differentially expressed in LL-37

CC[C@H](C)[C@H](NC(=O)[C@H](CCCCN)NC(=O)[C@H](CCC(=O)O)NC(=O)[C@H](CCCCN)NC(=O)[C@H](CO)NC(=O)[C@H](CCCCN)NC(=O)[C@H](CCCNC(=N)N)NC(=O)[C@H](Cc1ccccc1)NC(=O)[C@H](Cc1ccccc1)NC(=O)[C@H](CC(=O)O)NC(=O)CNC(=O)[C@H](CC(C)C)NC(=O)[C@@H](N)CC(C)C)C(=O)NCC(=O)N[C@@H](CCCCN)C(=O)N[C@@H](CCC(=O)O)C(=O)N[C@@H](Cc1ccccc1)C(=O)N[C@@H](CCCCN)C(=O)N[C@@H](CCCNC(=N)N)C(=O)N[C@H](C(=O)N[C@H](C(=O)N[C@@H](CCC(N)=O)C(=O)N[C@@H](CCCNC(=N)N)C(=O)N[C@H](C(=O)N[C@@H](CCCCN)C(=O)N[C@@H](CC(=O)O)C(=O)N[C@@H](Cc1ccccc1)C(=O)N[C@@H](CC(C)C)C(=O)N[C@@H](CCCNC(=N)N)C(=O)N[C@@H](CC(N)=O)C(=O)N[C@@H](CC(C)C)C(=O)N[C@H](C(=O)N1CCC[C@H]1C(=O)N[C@@H](CCCNC(=N)N)C(=O)N[C@H](C(=O)N[C@@H](CCC(=O)O)C(=O)N[C@@H](CO)C(=O)O)[C@@H](C)O)C(C)C)[C@@H](C)CC)C(C)C)[C@@H](C)CC [LL-37]
CD630_18890 fold change in LL-37 (2 µg/ml LL-37, BHIS): 4.54 | CD630_18900 fold change in LL-37 (2 µg/ml LL-37, BHIS): 3.60 | CD630_19120 (eutA) fold change in LL-37 (2 µg/ml LL-37, BHIS): 0.20 | CD630_19150 (eutL) fold change in LL-37 (2 µg/ml LL-37, BHIS): 0.21 | CD630_19180 (eutK) fold change in LL-37 (2 µg/ml LL-37, BHIS): 0.40 | CD630_19210 fold change in LL-37 (2 µg/ml LL-37, BHIS): 0.48 | CD630_19220 (eutN) fold change in LL-37 (2 µg/ml LL-37, BHIS): 0.25 | CD630_19440 fold change in LL-37 (2 µg/ml LL-37, BHIS): 2.03 | CD630_19670 fold change in LL-37 (2 µg/ml LL-37, BHIS): 2.01 | CD630_20140 (ilvD) fold change in LL-37 (2 µg/ml LL-37, BHIS): 2.90 | CD630_20160 fold change in LL-37 (2 µg/ml LL-37, BHIS): 0.26 | CD630_20270 fold change in LL-37 (2 µg/ml LL-37, BHIS): 2.69 | CD630_20280 (racX) fold change in LL-37 (2 µg/ml LL-37, BHIS): 2.39 | CD630_20451 fold change in LL-37 (2 µg/ml LL-37, BHIS): 0.46 | CD630_20751 fold change in LL-37 (2 µg/ml LL-37, BHIS): 2.21 | CD630_20910 fold change in LL-37 (2 µg/ml LL-37, BHIS): 2.49 | CD630_21270 fold change in LL-37 (2 µg/ml LL-37, BHIS): 2.34 | CD630_21430 fold change in LL-37 (2 µg/ml LL-37, BHIS): 0.48 | CD630_21510 fold change in LL-37 (2 µg/ml LL-37, BHIS): 0.48 | CD630_21640 (ldh) fold change in LL-37 (2 µg/ml LL-37, BHIS): 2.95 | CD630_21710 fold change in LL-37 (2 µg/ml LL-37, BHIS): 0.34 | CD630_21930 (cwp24) fold change in LL-37 (2 µg/ml LL-37, BHIS): 2.54 | CD630_22010 fold change in LL-37 (2 µg/ml LL-37, BHIS): 0.40 | CD630_22330 (asrA) fold change in LL-37 (2 µg/ml LL-37, BHIS): 2.43 | CD630_23090 fold change in LL-37 (2 µg/ml LL-37, BHIS): 2.29 | CD630_23300 (xpt) fold change in LL-37 (2 µg/ml LL-37, BHIS): 0.49 | CD630_23310 (mtlD) fold change in LL-37 (2 µg/ml LL-37, BHIS): 0.12 | CD630_23320 (mtlF) fold change in LL-37 (2 µg/ml LL-37, BHIS): 0.12 | CD630_23330 (mtlR) fold change in LL-37 (2 µg/ml LL-37, BHIS): 0.14 | CD630_23340 (mtlA) fold change in LL-37 (2 µg/ml LL-37, BHIS): 0.15 | CD630_23380 (4hbD) fold change in LL-37 (2 µg/ml LL-37, BHIS): 12.95 | CD630_23390 (cat2) fold change in LL-37 (2 µg/ml LL-37, BHIS): 13.27 | CD630_23400 fold change in LL-37 (2 µg/ml LL-37, BHIS): 13.14 | CD630_23410 (abfD) fold change in LL-37 (2 µg/ml LL-37, BHIS): 14.81 | CD630_23420 (sucD) fold change in LL-37 (2 µg/ml LL-37, BHIS): 12.71 | CD630_23430 (cat1) fold change in LL-37 (2 µg/ml LL-37, BHIS): 11.85 | CD630_23440 fold change in LL-37 (2 µg/ml LL-37, BHIS): 10.85 | CD630_23700 (nadC) fold change in LL-37 (2 µg/ml LL-37, BHIS): 0.42 | CD630_23710 (nadB) fold change in LL-37 (2 µg/ml LL-37, BHIS): 0.40 | CD630_23720 (nadA) fold change in LL-37 (2 µg/ml LL-37, BHIS): 0.40 | CD630_23790 (buk2) fold change in LL-37 (2 µg/ml LL-37, BHIS): 3.13 | CD630_23800 (iorB) fold change in LL-37 (2 µg/ml LL-37, BHIS): 10.81 | CD630_23810 (iorA) fold change in LL-37 (2 µg/ml LL-37, BHIS): 13.66 | CD630_23820 fold change in LL-37 (2 µg/ml LL-37, BHIS): 13.76 | CD630_24291 fold change in LL-37 (2 µg/ml LL-37, BHIS): 0.23 | CD630_24610 (dnaK) fold change in LL-37 (2 µg/ml LL-37, BHIS): 0.48 | CD630_24620 (grpE) fold change in LL-37 (2 µg/ml LL-37, BHIS): 0.41 | CD630_24630 (hrcA) fold change in LL-37 (2 µg/ml LL-37, BHIS): 0.49 | CD630_25090 fold change in LL-37 (2 µg/ml LL-37, BHIS): 0.40 | CD630_25100 fold change in LL-37 (2 µg/ml LL-37, BHIS): 0.48 | CD630_25110 fold change in LL-37 (2 µg/ml LL-37, BHIS): 0.48 | CD630_25150 fold change in LL-37 (2 µg/ml LL-37, BHIS): 0.38 | CD630_25160 (ansB) fold change in LL-37 (2 µg/ml LL-37, BHIS): 0.44 | CD630_25171 fold change in LL-37 (2 µg/ml LL-37, BHIS): 2.04 | CD630_25560 fold change in LL-37 (2 µg/ml LL-37, BHIS): 4.24 | CD630_26140 fold change in LL-37 (2 µg/ml LL-37, BHIS): 0.12 | CD630_26640 (murE) fold change in LL-37 (2 µg/ml LL-37, BHIS): 0.35 | CD630_26650 fold change in LL-37 (2 µg/ml LL-37, BHIS): 0.43 | CD630_26691 fold change in LL-37 (2 µg/ml LL-37, BHIS): 0.50 | CD630_26700 fold change in LL-37 (2 µg/ml LL-37, BHIS): 0.43 | CD630_26710 fold change in LL-37 (2 µg/ml LL-37, BHIS): 0.38 | CD630_26820 (pfo) fold change in LL-37 (2 µg/ml LL-37, BHIS): 2.03 | CD630_26860 fold change in LL-37 (2 µg/ml LL-37, BHIS): 0.41 | CD630_26870 fold change in LL-37 (2 µg/ml LL-37, BHIS): 0.46 | CD630_27090 fold change in LL-37 (2 µg/ml LL-37, BHIS): 2.37 | CD630_27250 fold change in LL-37 (2 µg/ml LL-37, BHIS): 2.07 | CD630_27491 fold change in LL-37 (2 µg/ml LL-37, BHIS): 0.38 | CD630_27500 (agrB) fold change in LL-37 (2 µg/ml LL-37, BHIS): 0.49 | CD630_27640 fold change in LL-37 (2 µg/ml LL-37, BHIS): 0.38 | CD630_27840 (cwp6) fold change in LL-37 (2 µg/ml LL-37, BHIS): 2.30 | CD630_27880 fold change in LL-37 (2 µg/ml LL-37, BHIS): 0.48 | CD630_28770 (fhuB) fold change in LL-37 (2 µg/ml LL-37, BHIS): 0.35 | CD630_28780 (fhuD) fold change in LL-37 (2 µg/ml LL-37, BHIS): 0.30 | CD630_29320 fold change in LL-37 (2 µg/ml LL-37, BHIS): 0.30 | CD630_29330 fold change in LL-37 (2 µg/ml LL-37, BHIS): 0.50 | CD630_29341 fold change in LL-37 (2 µg/ml LL-37, BHIS): 0.29 | CD630_29360 fold change in LL-37 (2 µg/ml LL-37, BHIS): 0.44 | CD630_29400 fold change in LL-37 (2 µg/ml LL-37, BHIS): 0.42 | CD630_29420 fold change in LL-37 (2 µg/ml LL-37, BHIS): 0.41 | CD630_29430 fold change in LL-37 (2 µg/ml LL-37, BHIS): 0.45 | CD630_29440 fold change in LL-37 (2 µg/ml LL-37, BHIS): 0.44 | CD630_29470 fold change in LL-37 (2 µg/ml LL-37, BHIS): 0.30 | CD630_29490 fold change in LL-37 (2 µg/ml LL-37, BHIS): 0.46 | CD630_29620 fold change in LL-37 (2 µg/ml LL-37, BHIS): 2.13 | CD630_29710 (bioY) fold change in LL-37 (2 µg/ml LL-37, BHIS): 0.45 | CD630_30250 fold change in LL-37 (2 µg/ml LL-37, BHIS): 0.47 | CD630_30260 fold change in LL-37 (2 µg/ml LL-37, BHIS): 0.45 | CD630_30270 fold change in LL-37 (2 µg/ml LL-37, BHIS): 0.25 | CD630_30340 fold change in LL-37 (2 µg/ml LL-37, BHIS): 0.38 | CD630_30360 fold change in LL-37 (2 µg/ml LL-37, BHIS): 0.39 | CD630_30720 fold change in LL-37 (2 µg/ml LL-37, BHIS): 0.41 | CD630_30990 fold change in LL-37 (2 µg/ml LL-37, BHIS): 0.40 | CD630_31000 fold change in LL-37 (2 µg/ml LL-37, BHIS): 0.36 | CD630_31150 (bglA4) fold change in LL-37 (2 µg/ml LL-37, BHIS): 0.37 | CD630_31360 (bglA7) fold change in LL-37 (2 µg/ml LL-37, BHIS): 0.35 | CD630_31370 (bglF5) fold change in LL-37 (2 µg/ml LL-37, BHIS): 0.39 | CD630_31750 (cggR) fold change in LL-37 (2 µg/ml LL-37, BHIS): 0.22 | CD630_32090 fold change in LL-37 (2 µg/ml LL-37, BHIS): 0.47 | CD630_32100 fold change in LL-37 (2 µg/ml LL-37, BHIS): 0.48 | CD630_32220 (sdaB) fold change in LL-37 (2 µg/ml LL-37, BHIS): 0.49 | CD630_32570 fold change in LL-37 (2 µg/ml LL-37, BHIS): 0.37 | CD630_32600 (phoU) fold change in LL-37 (2 µg/ml LL-37, BHIS): 0.49 | CD630_32620 (pstA) fold change in LL-37 (2 µg/ml LL-37, BHIS): 0.48 | CD630_33440 fold change in LL-37 (2 µg/ml LL-37, BHIS): 0.39 | CD630_33730 (mgtA) fold change in LL-37 (2 µg/ml LL-37, BHIS): 3.39 | CD630_33740 fold change in LL-37 (2 µg/ml LL-37, BHIS): 3.92 | CD630_33750 (mgtC) fold change in LL-37 (2 µg/ml LL-37, BHIS): 2.96 | CD630_33790 fold change in LL-37 (2 µg/ml LL-37, BHIS): 2.14 | CD630_33911 fold change in LL-37 (2 µg/ml LL-37, BHIS): 2.66 | CD630_35370 (phnH) fold change in LL-37 (2 µg/ml LL-37, BHIS): 0.39 | CD630_36010 fold change in LL-37 (2 µg/ml LL-37, BHIS): 0.35 | CD630_22290 fold change in LL-37 (2 µg/ml LL-37, BHIS (Table S5)): 0.51 | genes induced (sub-MIC LL-37, at least 2-fold, p < 0.05): 107 genes | genes differentially expressed at least 2-fold (sub-MIC LL-37, p < 0.05): 228 genes
